The record followed here is patent US20080280974A1, “Spiro compounds for treatment of inflammatory disorders” (priority 2007, published 2008).

The subject of series [1] is IL-8 secreted by human pulmonary artery endothelial cells (HPAEC). In words: In vitro IL-8 assay: TNF-alpha-stimulated IL-8 secretion by HPAEC, ELISA. Type of series: cell-based. To be noted: Endothelial cell, 10 microM compound, 20 hrs preincubation, then 2 ng/ml TNF-alpha for 4 hrs. As to the method: (§1) In Vitro IL-6 and IL-8 Assays
(§2) Compounds at dosing concentrations (with 0.2% DMSO vehicle) were incubated in EGM2MV cell media at 37° C. for overnight, added to 96-well plates seeded with confluent human pulmonary artery endothelial cells (HPAEC) for 20 hrs at 37° C., and then replaced with fresh dosing media containing 2 ng/ml tumor necrosis factor alpha for additional 4 hrs at 37° C. Afterwards, media was removed and used in ELISA assay to quantify the amount of IL-6 and IL-8 secreted by the cells using R&D Systems Duoset ELISA kits.
A general note: ELISA stands for enzyme-linked immunosorbent assay.

Series [2] concerns IL-6 secreted by human pulmonary artery endothelial cells (HPAEC). In words: In vitro IL-6 assay: TNF-alpha-stimulated IL-6 secretion by HPAEC, ELISA. Type of series: cell-based. To be noted: Endothelial cell, 10 microM compound, 20 hrs preincubation, then 2 ng/ml TNF-alpha for 4 hrs. As to the method:
as §1, §2

Series [3] deals with Balb/CJ mice, ovalbumin-sensitized and challenged. In words: Mouse model of asthma: methacholine-induced airway reactivity (Penh) in ovalbumin-sensitized mice. Type of series: in vivo. The note with it: po, 768 h, 50 mg/kg p.o., days 26-32, % inhibition of the PenH vs McH dose AUC compared with vehicle control, day 32, read-out: Reduction of Penh AUC at 50 mg/kg p.o. Here is the method: Protocol for Testing Compounds in a Mouse Model of Asthma
Male 5-6 week old Balb/CJ mice were obtained from Jackson Laboratories (Bar Harbor, Me.). All experimental animals were used in accordance to Institutional Animal Care and Use Committee of AtheroGenics, Inc. Mice were sensitized by administering an intraperitoneal injection of 20 μg of ovalbumin (Calbiochem, La Jolla, Calif.) adsorbed in 2 mg of alum (Imject Alum; Pierce, Rockford, Ill.) on day 0 and 14. A group of mice received saline and served as negative control animals. The mice were challenged by aerosol exposure to ovalbumin (1% [wt/vol]) for 25 minutes on 3 consecutive days (days 28, 29, and 30) in a plexiglas exposure chamber coupled to an Aeroneb nebulizer (Buxco Electronics, Wilmington, N.C.). Experimental compounds were dissolved in Glycofurol/PEG 300/Tween (35%/55%/10%) (Sigma-aldrich; Milwaukee, Wis.). Animals were dosed orally with either test compound or vehicle (6 ml/kg dosing volume) on days 26-32 of study. Compound or vehicle was administered 2 hour before the aerosol challenge on days 28, 29, and 30 and 1 hour before airway reactivity measurement on day 32.
Methacholine-induced airway reactivity was assessed on day 32. Methacholine was administered in increasing concentrations ([…], 1.5, 3, 6, 12, 25, and 50 mg/ml) to unrestrained mice. Increases in airway resistance to Methacholine were determined as enhanced pause, (Penh) values, during and after the exposure (6-minute total analysis time). Mice were then humanely euthanized with an overdose of ketamine/xylazine and plasma samples collected for determination of drug levels. The data is presented as the % inhibition of the PenH vs McH dose AUC compared with the vehicle control.
Data analysis was conducting using the software package, JMP (SAS Institute Inc; Cary, N.C.). The Dunnett's multiple comparison test was used to compare treatment group means to the vehicle control group. P values of less than 0.05 were considered statistically significant. The data (Table 1) are presented as the % inhibition of the PenH vs McH dose AUC compared with the vehicle control.

Broadly, the inhibition is the share of the control response that was lost under treatment. Low values mean a response near the control, high ones a response far below the control. By melting point is commonly meant the temperature of the solid-liquid transition. As for `Cc1cc2c(cc1O)C(C)(C)CC1(CC(C)(C)c3cc(OCCO)c(C)cc3O1)O2` (racemic) [Example 1, (±)-6′-Hydroxy-6-(2-hydroxyethoxy)-4,4,4′,4′,7,7′-hexamethyl-2,2′-spirobichroman], the melting point is 186 to 188 °C. In series [1], this compound came in with an inhibition at 10 µM of 0%. The compound also gave an inhibition at 10 µM in series [2] of 20%. For the same compound, the inhibition in vivo at 50 mg/kg in series [3] is below 20%.

In turn, `Cc1cc2c(cc1O)C(C)(C)CC1(CC(C)(C)c3cc(OCCCC(=O)O)c(C)cc3O1)O2` (racemic) [Example 12, 4-[(±)-(6′-Hydroxy-4,4,4′,4′,7,7′-hexamethyl-2,2′-spirobichroman-6-yloxy)-]butyric acid] yielded a melting point of 173 to 174 °C. For the same compound, testing at 10 µM in series [1] gave an inhibition of 0%. In series [2], this compound registered an inhibition at 10 µM of 0%. In addition, the inhibition in vivo at 50 mg/kg in series [3] is below 20%.

As for `Cc1cc(C)n(CCOc2cc3c(cc2C)OC2(CC(C)(C)c4cc(O)c(C)cc4O2)CC3(C)C)n1` (racemic) [Example 2, (±)-6′-Hydroxy-6-[2-(3,5-dimethyl-1H-pyrazol-1-yl)ethoxy]-4,4,4′,4′,7,7′-hexamethyl-2,2′-spirobichroman], the inhibition at 10 µM in series [1] was found to be 12%; in series [2], 9%. The inhibition in vivo at 50 mg/kg in series [3] was below 20%.

`Cc1cc(CO)n(CCCOc2cc3c(cc2C)OC2(CC(C)(C)c4cc(O)c(C)cc4O2)CC3(C)C)n1` (racemic) [Example 18, (±)-6′-Hydroxy-6-[3-(5-hydroxymethyl-3-methyl-1H-pyrazol-1-yl)propoxy]-4,4,4′,4′,7,7′-hexamethyl-2,2′-spirobichroman] came in with a melting point of 208 to 210 °C. Further, the inhibition at 10 µM in series [1] was determined as 5%. The compound further displayed an inhibition at 10 µM in series [2] of 41%.

With `Cc1cc2c(cc1O)C(C)(C)CC1(CC(C)(C)c3cc(O)c(C)cc3O1)O2` (racemic) [Example 24, (±)-6,6′-Dihydroxy-4,4,4′,4′,7,7′-hexamethyl-2,2′-spirobichroman], the inhibition at 10 µM in series [1] was 51%; in series [2], 65%. The inhibition in vivo at 50 mg/kg in series [3] was in the range of 20 to 40%.

In the case of `Cc1cc2c(cc1O)C(C)(C)CC1(CC(C)(C)c3cc(OCCCn4cccn4)c(C)cc3O1)O2` (racemic) [Example 4, (±)-6′-Hydroxy-6-[3-(1H-pyrazol-1-yl)propoxy]-4,4,4′,4′,7,7′-hexamethyl-2,2′-spirobichroman], the values for the inhibition at 10 µM in series [1] and in series [2] were 0% and 44%, respectively. The inhibition in vivo at 50 mg/kg in series [3] is below 20%.

Take `Cc1cc2c(cc1O)C(C)(C)CC1(CC(C)(C)c3cc(OC(C)(C)C(=O)O)c(C)cc3O1)O2` (racemic) [Example 8, (±)-(6′-Hydroxy-4,4,4′,4′,7,7′-hexamethyl-2,2′-spirobichroman-6-yloxy)-dimethylacetic acid]: the inhibition at 10 µM in series [1] was 25%; in series [2] it was 42%. In addition, the inhibition in vivo at 50 mg/kg in series [3] was above 40%.

In the case of `Cc1cc2c(cc1O)C(C)(C)CC1(CC(C)(C)c3cc(OC[C@@H](O)CO)c(C)cc3O1)O2` (mixture of isomers) [Example 5, (±)-6′-Hydroxy-6-[2(S),3-dihydroxypropoxy]-4,4,4′,4′,7,7′-hexamethyl-2,2′-spirobichroman], the melting point lay in the range of 218 to 220 °C. The same compound came in with an inhibition at 10 µM in series [1] of 11%. Besides, at 10 µM the inhibition in series [2] was 3%. Further, the inhibition in vivo at 50 mg/kg in series [3] is 20 to 40%.

The compound `Cc1cc2c(cc1OCC(=O)O)C(C)(C)CC1(CC(C)(C)c3cc(OCC(=O)O)c(C)cc3O1)O2` (racemic) [Example 21, (±)-[(4,4,4′,4′,7,7′-Hexamethyl-2,2′-spirobichroman-6,6′-diyl)bis(oxy)]-bis-acetic acid] yielded a melting point above 260 °C. This compound also displayed an inhibition at 10 µM in series [1] of 19%. In addition, 10 µM produced 25% inhibition in series [2]. Also, the inhibition in vivo at 50 mg/kg in series [3] is 20 to 40%.

As to `Cc1cc2c(cc1O)C(C)(C)CC1(CC(C)(C)c3cc(OCCCO)c(C)cc3O1)O2` (racemic) [Example 3, (±)-6′-Hydroxy-6-(3-hydroxypropoxy)-4,4,4′,4′,7,7′-hexamethyl-2,2′-spirobichroman], the melting point fell in the range of 175 to 177 °C. In series [1], the inhibition at 10 µM amounted to 13%. Testing at 10 µM in series [2] gave an inhibition of 53%. Besides, the inhibition in vivo at 50 mg/kg in series [3] lay within 20 to 40%.

`Cc1cc2c(cc1O)C(C)(C)CC1(CC(C)(C)c3cc(OCC(=O)O)c(C)cc3O1)O2` (racemic) [Example 7, (±)-6′-(Hydroxy-4,4,4′,4′,7,7′-hexamethyl-2,2′-spirobichroman-6-yloxy)-acetic acid] registered a melting point of 227 to 229 °C. The same compound showed an inhibition at 10 µM in series [1] of 0%. This compound also gave an inhibition at 10 µM in series [2] of 12%. In addition, in series [3], the inhibition in vivo at 50 mg/kg is above 40%.

As for `COc1cc2c(cc1C)OC1(CC2(C)C)CC(C)(C)c2cc(OCC(=O)O)c(C)cc2O1` (racemic) [Example 20, (±)-(6′-Methoxy-4,4,4′,4′,7,7′-hexamethyl-2,2′-spirobichroman-6-yloxy)-acetic acid], the melting point fell in the range of 195 to 197 °C. Moreover, the inhibition in vivo at 50 mg/kg in series [3] was below 20%.

With `Cc1cc2c(cc1O)C(C)(C)CC1(CC(C)(C)c3cc(OCCCn4ccnc4)c(C)cc3O1)O2` (racemic) [Example 6, (±)-6′-Hydroxy-6-[3-(1H-imidazol-1-yl)propoxy]-4,4,4′,4′,7,7′-hexamethyl-2,2′-spirobichroman], the melting point was in the range of 209 to 211 °C. The compound further gave an inhibition at 10 µM in series [1] of 5%. In series [2], 10 µM produced 24% inhibition.

With `C=CCc1c(O)c(C)cc2c1C(C)(C)CC1(CC(C)(C)c3cc(O)c(C)cc3O1)O2` (racemic) [Example 22, (±)-6,6′-Dihydroxy-5-allyl-4,4,4′,4′,7,7′-hexamethyl-2,2′-spirobichroman], the melting point lay within 102 to 104 °C. The inhibition in vivo at 50 mg/kg in series [3] was below 20%.

Compound `Cc1cc2c(cc1O)C(C)(C)CC1(CC(C)(C)c3cc(OCCCn4nc(CO)cc4C)c(C)cc3O1)O2` (racemic) [Example 17, (±)-6′-Hydroxy-6-[3-(3-hydroxymethyl-5-methyl-1H-pyrazol-1-yl)propoxy]-4,4,4′,4′,7,7′-hexamethyl-2,2′-spirobichroman] yielded a melting point of 217 to 219 °C. Moreover, the inhibition in vivo at 50 mg/kg in series [3] was in the range of 20 to 40%.
